{"source": "paper PMC3771522", "about": "(Analytical chemistry, 2013)", "key": {"[1]": {"target": "creatine phosphokinase", "assay": "fluorescence titration, hyperbolic single-site fit", "conditions": "known ATP-binding protein for comparison"}, "[2]": {"target": "proliferating cell nuclear antigen (PCNA) (Homo sapiens, UniProt P12004)", "sequence (P12004 whole entry)": "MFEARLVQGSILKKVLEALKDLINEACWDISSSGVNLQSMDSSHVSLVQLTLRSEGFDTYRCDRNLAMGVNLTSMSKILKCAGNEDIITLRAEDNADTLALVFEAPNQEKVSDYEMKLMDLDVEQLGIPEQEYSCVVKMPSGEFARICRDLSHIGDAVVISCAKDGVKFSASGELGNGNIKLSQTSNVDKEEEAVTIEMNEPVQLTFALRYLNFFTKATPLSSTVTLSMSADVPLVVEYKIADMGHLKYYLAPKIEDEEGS", "assay": "fluorescence titration, hyperbolic single-site fit", "format": "binding", "conditions": "constant PCNA, increasing TNP-ATP"}}}
{"substance": "TNP-ATP", "values": [{"measurement": "Kd", "setting": "[1]", "result": 27, "unit": "µM"}, {"measurement": "Kd", "setting": "[2]", "result": 13, "unit": "µM"}]}
